Assay results as given in patent US20110045032A1 (priority 2001, published 2011).

Assays:
[1] = system: Intracellular Adenosine in various Rat Tissues; assay type: in vivo
Experimental: Folinic acid (50 mg/kg) was administered intraperitoneally once daily for fourteen days. […] Hearts were removed from animals and flash frozen in liquid nitrogen with 10 seconds of death. Liver and lungs were removed en bloc and flash frozen with 30 seconds of death. Brain tissue was subsequently dissected.

HT-29 SF cells [2] = experiment: Reversal of DHEA-mediated growth inhibition by supplements; assay type: cell-based, human; conditions: 25 μM DHEA, 48 hours of treatment
HT-29 SF cells [3] = experiment: Reversal of DHEA effect on cell cycle by supplements; assay type: cell-based, human; conditions: 25 μM DHEA
HT-29 SF cells [4] = experiment: DHEA effect on cell cycle distribution (flow cytometry); assay type: cell-based, human; conditions: 25-200 μM, 24-72 hours; time- and dose-dependent
Experimental: Cells were plated at 10^5/60-mm dish in duplicate. […] Cultures were trypsinized following […] and fixed and stained using a modification of a procedure of Bauer et al., Cancer Res., 46, 3173-3178 (1986). Briefly, cells were collected by centrifugation and resuspended in cold phosphate-buffered saline. Cells were fixed in 70% ethanol, washed, and resuspended in phosphate-buffered saline.
After 24, 48, and 72 hours, cells were harvested, fixed in ethanol, and stained with propidium iodide, and the DNA content/cell was determined by flow cytometric analysis. The percentage of cells in G1, S, and G2M phases was calculated using the Cellfit cell cycle analysis program. S phase is marked by a quadrangle for clarity. Representative histograms from duplicate determinations are shown. The experiment was repeated three times.

HT-29 SF cells [5] = experiment: DHEA effect on cell growth (Coulter counter)
Experimental: Cell cultures, HT-29 SF cells, which represent a subline of HY-29 cells (ATCC, Rockville, Md.) and are adapted for growth in completely defined serum-free PC-1 medium (Ventrex, Portland, Me.), were obtained. Stock cultures were maintained in this medium at 37° (in a humidified atmosphere containing 5% CO2).

[6] = system: adult acute asthma exacerbation; conditions: in conjunction with beta 2-agonists; adult and pediatric studies; cited from earlier work
mast cell = conditions: cell incubation for 5 min; cited from earlier work
[7] = system: patients with mild-to-moderate asthma; conditions: cited from earlier work
[8] = system: dust mite-sensitized rabbits; experiment: Adenosine sensitivity PC40 (Example 25 animals); conditions: 4 animals
[9] = system: dust mite-sensitized rabbits; experiment: Adenosine sensitivity PC40 (Example 26 animals); conditions: 5 animals
muscarinic receptors = conditions: cited from earlier work
[10] = system: asthmatic and chronic obstructive pulmonary disease (COPD) patients; conditions: cited from earlier work
[11] = target: T1, M(1)-muscarinic receptors (Homo sapiens, UniProt P11229); conditions: cited from earlier work
T1 sequence (P11229 1-460): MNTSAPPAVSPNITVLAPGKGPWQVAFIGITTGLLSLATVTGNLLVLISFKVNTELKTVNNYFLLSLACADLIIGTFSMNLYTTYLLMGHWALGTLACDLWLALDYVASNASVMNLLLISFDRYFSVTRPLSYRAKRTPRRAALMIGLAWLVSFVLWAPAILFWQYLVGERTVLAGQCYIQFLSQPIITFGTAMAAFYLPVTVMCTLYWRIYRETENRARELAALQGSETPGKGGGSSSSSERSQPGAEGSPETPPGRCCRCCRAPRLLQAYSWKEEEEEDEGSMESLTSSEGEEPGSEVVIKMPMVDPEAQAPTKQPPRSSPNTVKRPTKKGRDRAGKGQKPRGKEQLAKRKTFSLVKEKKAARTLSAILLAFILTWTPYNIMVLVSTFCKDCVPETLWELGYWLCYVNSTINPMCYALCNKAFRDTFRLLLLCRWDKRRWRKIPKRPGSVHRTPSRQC

mast cells = conditions: cited from earlier work

SMILES: Nc1nc(=O)c2c([nH]1)NCC(CNc1ccc(C(=O)N[C@@H](CCC(=O)O)C(=O)O)cc1)N2C=O (mixture of isomers) [Folinic Acid, Folinic acid]
- adenosine levels, folinic acid administered alone ([1]; all organs studied): increase in adenosine levels
- effect of co-administration of folinic acid on steroid-mediated adenosine depletion ([1]; co-administered with DHEA or methyltestosterone): completely abrogated

SMILES: CC(C)CCC[C@@H](C)[C@H]1CC[C@H]2[C@@H]3CC=C4C[C@@H](O)CC[C@]4(C)[C@H]3CC[C@]12C [CH, cholesterol]
- reversal of DHEA-induced growth inhibition by supplement (HT-29 SF cells [2]): no such effect
- prevention of DHEA-induced S phase depletion (HT-29 SF cells [3]; 48 hours): very little effect

SMILES: C[C@]12CC[C@H](O)CC1=CC[C@@H]1[C@@H]2CC[C@]2(C)C(=O)CC[C@@H]12 [DHEA, dehydroepiandrosterone]
- cell cycle effect (overall) (HT-29 SF cells [4]): G1 block
- inhibition of growth (HT-29 SF cells [5]; 0-200 μM, 0-72 hours): time- and dose-dependent inhibition of growth
- exposure time after which cell number reduced compared to controls (HT-29 SF cells [5]; 25 or 50 μM DHEA): 48 h

SMILES: CC(C)[N+]1(C)[C@@H]2CC[C@H]1C[C@@H](OC(=O)C(CO)c1ccccc1)C2 (stereo partly drawn) [IB, Ipratropium Bromide]
- severe adverse effects attributable to ipratropium [6]: Neither the adult nor the pediatric studies reported severe adverse effects
- inhibition of histamine release (mast cell): no distinction

SMILES: C[C@@](O)(CCO)CC(=O)O [MVA, mevalonic acid]
- reversal of DHEA-induced growth inhibition by supplement (HT-29 SF cells [2]): partially overcome
- prevention of DHEA-induced S phase depletion (HT-29 SF cells [3]; 48 hours): partially prevented
- prevention of DHEA-induced S phase depletion (HT-29 SF cells [3]; 72 hours): not

SMILES: CC(C)=CCC/C(C)=C/CC/C(C)=C/CC/C=C(\C)CC/C=C(\C)CCC=C(C)C [SQ, squalene]
- reversal of DHEA-induced growth inhibition by supplement (HT-29 SF cells [2]): no such effect

SMILES: CC(c1cc2ccccc2s1)N(O)C(N)=O (stereo not drawn) [Zyflo]
- beta-agonist puffs per day lower than baseline ([7]; at the end of the study): 31%
- number of beta-agonist puffs needed per day ([7]; at the end of the study): 1.77 puffs
- patients requiring steroid rescue ([7]; compared with 18.7% placebo): 7%
- reduction in patients requiring steroid rescue vs placebo ([7]; human, in vivo): 62%

SMILES: Nc1ncnc2c1ncn2[C@@H]1O[C@H](CO)[C@@H](O)[C@H]1O [adenosine]
- PC40 for adenosine, mean [8]: 2.5 mg/mL
- PC40 for adenosine, mean [9]: 4.5 mg/mL

SMILES: CN1[C@@H]2CC[C@H]1C[C@@H](OC(=O)C(CO)c1ccccc1)C2 (stereo partly drawn) [atropine]
- inhibition of histamine release (mast cell): no distinction

SMILES: C[N+]1(C)[C@@H]2C[C@@H](OC(=O)C(O)(c3cccs3)c3cccs3)C[C@H]1[C@@H]1O[C@@H]12 [tiotropium bromide, Tiotropium bromide]
- affinity for muscarinic receptors (muscarinic receptors): high affinity
- duration of bronchodilator and bronchoprotective effect ([10]; Phase II, single inhaled doses): over 24 h
- patients with dryness of the mouth ([10]; human, in vivo): approximately 10%
- duration of stable bronchodilation ([10]; phase III clinical trials, inhaled once daily): more than 24 hours
- dissociation from receptor [11]: dissociates very slowly

SMILES: CCC(CO)(C(=O)OC1C[C@H]2CC[C@@H](C1)[N+]2(C)C)c1ccccc1.[I-] (stereo partly drawn) [troventol]
- decrease in speed of passive calcium ion uptake (mast cells): 56.3%
- inhibition of histamine release (mast cell): 47%
